Test results: paper PMC9021956, “Screening and Identification of HBV Epitopes Restricted by Multiple Prevalent HLA-A Allotypes” (Frontiers in Immunology, 2022)
Read-outs that look alike come from different tables or passages of the source. Residues, ends and D or L forms follow the SMILES beside them.

Experiments:
HLA-A0206 = molecular target: T1, HLA-A0206 (Homo sapiens, UniProt P04439, D140Y/D185E/D98H/E176V/E277Q/F33Y/G131W/G231S/I119V/I121R/I166T/I218V/L300P/L318F/N151K/N90K/P208A/P217A/Q86G/Q94H/R138H/R169H/T345S); experiment: cell-based; assay type: binding; settings: HLA-A0206 HMy2.CIR cells, 24 hours, flow cytometry
T1 construct: expressed in transfected cells; host or cells: HMy2.CIR
In short: (§1)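 HMy2.CIR cells stably transfected with the HLA-A allele, acid-stripped (citrate/phosphate, pH3.3), neutralised and plated with β2-m (1 μg/mL); unlabeled peptide competes with the allele's FITC reference peptide. FITC+ cells read by flow cytometry; competitive binding % normalised to no-peptide and reference-only wells; IC50 reported.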

HLA-A1101 = molecular target: T2, HLA-A1101 (Homo sapiens, UniProt P04439, A114D/D185E/E176A/F33Y/L180Q/S129P/T187R); experiment: cell-based; assay type: binding; settings: for inhibition at 5 µM: read-out: 5μM Inhibition (%); for inhibition at 15 µM: read-out: 15μM Inhibition (%)
T2 construct: expressed in transfected cells; host or cells: HMy2.CIR
In short: as §1

HLA-A0301 = molecular target: T3, HLA-A0301 (Homo sapiens, UniProt P04439); experiment: Peptide competitive binding assay, transfected HMy2.CIR cells, reference ATFQFK(FITC)VER; settings: HLA-A0301 HMy2.CIR cells, 24 hours, flow cytometry
T3 construct: expressed in transfected cells; host or cells: HMy2.CIR
In short: as §1

HLA-A1102 = molecular target: T4, HLA-A1102 (Homo sapiens, UniProt P04439, A114D/D185E/E176A/E43K/F33Y/L180Q/S129P/T187R); experiment: as above; settings: HLA-A1102 HMy2.CIR cells, 24 hours, flow cytometry
T4 construct: expressed in transfected cells; host or cells: HMy2.CIR
In short: as §1

[1] = system: twelve prevalent HLA-A allotypes; experiment: Peptide competitive binding assay, whole panel; design: species or system human; settings: high = IC50<5μM
Protocol: A set of fluoresce-labeled reference peptides (positive-control peptide) were synthesized with a purity of >99% by Sangon Biotech and stored at 4°C, such as FLPSDK(FITC)FPSV for A0201, A0203 and A0206 ([30]), YVNVNK(FITC)GLK for A1101 and A3303 ([31]), EYLVSK(FITC)GVW for A2402 ([32]), ATFQFK(FITC)VER for A3101, A1102 and A0301 ([33]), KLPDDFK(FITC)GCV for A0207 ([34]), YLEPAK(FITC)AKY for A0101 ([30]), and ASRELK(FITC)VSY for A3001 (identified in house). Then the competitive peptide binding assay was performed as described with minor modifications ([30], [35]). Briefly, the HMy2.CIR cell lines expressing the indicated HLA-A molecule were washed with acid buffer (0.131M citric acid and 0.061M sodium phosphate Na2HPO4, PH3.3, 0.22 μm filtered) for 1 min, and immediately neutralized by IMDM medium containing 0.5% BSA. After washing, the cells were seeded into 96-well U culture plate (1×10^5 cells/100 μL/well) with β2-m (1 μg/mL). […] In parallel, no peptide control well (cells alone) and positive control well (cells with FITC-labeled reference peptide) were also performed.
The plate was centrifuged at 600 rpm for 5 min at room temperature (RT). Cells were washed twice with 100 μL cold 0.5% BSA-PBS. Finally, cells were resuspended with 150 μL PBS and analyzed with flow cytometry. Sample % is the percentage of FITC^+ cells in the experiment well, while the background % is the percentage of FITC^+ cells in the no peptide control well, and the max % is the percentage of FITC^+ cells in the positive control well. Competitive binding (%) = [1-(sample % - background %)/(max % – background %)] × 100%. […] Binding affinity of unlabeled peptide with the indicated HLA-A molecule is assessed by IC50.
Subsequently, the unlabeled epitope peptides of HBV competed with fluorescently labeled reference peptides in the binding with HLA-A molecules onto transfected cell lines for 24 hours. Here, twelve prevalent HLA-A allotypes were tested with totally 62 HBV epitope peptides validated in house.

HLA-A0201 = molecular target: T5, HLA-A0201 (Homo sapiens, UniProt P04439, D140Y/D185E/D98H/E176V/E277Q/G131W/G231S/I119V/I121R/I166T/I218V/L300P/L318F/N151K/N90K/P208A/P217A/Q86G/Q94H/R138H/R169H/T345S); experiment: cell-based; assay type: binding; settings: for inhibition at 5 µM: read-out: 5μM Inhibition (%); for inhibition at 15 µM: read-out: 15μM Inhibition (%)
T5 construct: expressed in transfected cells; host or cells: HMy2.CIR
In short: as §1

HLA-A3101 = HLA-A3101 (Homo sapiens, UniProt P04439, A270S/D185E/E176V/E277Q/F33T/G231S/G80R/H175R/I121M/I218V/I322F/K168Q/L300P/L318F/M331R/P217A/Q94H/R138Q/T323A/T345S/T97I/V358M); experiment: Peptide competitive binding assay, transfected HMy2.CIR cells, reference ATFQFK(FITC)VER; settings: for inhibition at 5 µM / inhibition at 15 µM: HLA-A3101 HMy2.CIR cells, 24 hours, flow cytometry; for inhibition at 5 µM: competitor peptide 5μM; for inhibition at 15 µM: competitor peptide 15μM
In short: as §1

[2] = competitor peptide 5μM, read-out: 5μM Inhibition (%)
[3] = competitor peptide 15μM, read-out: 15μM Inhibition (%)
[4] = HLA-A1101 HMy2.CIR cells, competitor peptide 5μM, 24 hours, flow cytometry
[5] = HLA-A1101 HMy2.CIR cells, competitor peptide 15μM, 24 hours, flow cytometry

| Structure (SMILES) | inhibition at 5 µM (HLA-A0206; [2]) | inhibition at 15 µM (HLA-A0206; [3]) | inhibition at 5 µM (HLA-A1101; [4]) | inhibition at 15 µM (HLA-A1101; [5]) | inhibition at 5 µM (HLA-A0301; [2]) | inhibition at 15 µM (HLA-A0301; [3]) | inhibition at 5 µM (HLA-A1102; [2]) | inhibition at 15 µM (HLA-A1102; [3]) | number of HLA-A allotypes bound with high affinity [1] | IC50 (HLA-A0201) | inhibition at 5 µM (HLA-A0201; HLA-A0201 HMy2.CIR cells, competitor peptide 5μM, 24 hours, flow cytometry) | inhibition at 15 µM (HLA-A0201; HLA-A0201 HMy2.CIR cells, competitor peptide 15μM, 24 hours, flow cytometry) | IC50 (HLA-A1101) | inhibition at 5 µM (HLA-A3101) | inhibition at 15 µM (HLA-A3101) | IC50 (HLA-A3101; read-out: Affinity) | inhibition at 5 µM (HLA-A0201; 24 h) | inhibition at 15 µM (HLA-A0201; 24 h) | inhibition at 5 µM (HLA-A1101; 24 h) | inhibition at 15 µM (HLA-A1101; 24 h) |
| --- | --- | --- | --- | --- | --- | --- | --- | --- | --- | --- | --- | --- | --- | --- | --- | --- | --- | --- | --- | --- |
| CSCC[C@H](NC(=O)[C@@H](N)CO)C(=O)N[C@@H](Cc1ccc(O)cc1)C(=O)N1CCC[C@H]1C(=O)N[C@@H](CO)C(=O)N[C@@H](CS)C(=O)N[C@@H](CS)C(=O)N[C@@H](CS)C(=O)N[C@H](C(=O)N[C@@H](CCCCN)C(=O)O)[C@@H](C)O [Epitope P13] (H-SMYPSCCCTK-OH; N-terminus and C-terminus assumed) | 12.1% | 10.2% | 79.5% | 83.9% | 79.8% | 80.7% | 54.7% | 73.1% | three | – | – | – | – | – | – | – | – | – | – | – |
| CC(C)C[C@H](NC(=O)[C@H](CCCCN)NC(=O)[C@H](Cc1c[nH]cn1)NC(=O)[C@H](CCCNC(=N)N)NC(=O)[C@H](CS)NC(=O)CNC(=O)CNC(=O)[C@H](CC(C)C)NC(=O)[C@@H](N)C(C)C)C(=O)O [Epitope P36] (H-VLGGCRHKL-OH; N-terminus and C-terminus assumed) | – | – | 14% | 20.6% | – | – | – | – | – | > 15 µM | 22.3% | 37.3% | > 15 µM | 4.82% | 5.7% | > 15 µM | – | – | – | – |
| CC[C@H](C)[C@H](NC(=O)[C@H](CO)NC(=O)[C@H](CO)NC(=O)[C@@H](NC(=O)[C@@H]1CCCN1C(=O)[C@@H](N)CO)[C@@H](C)CC)C(=O)N[C@@H](Cc1ccccc1)C(=O)N[C@@H](CO)C(=O)N[C@@H](CCCNC(=N)N)C(=O)O [Epitope P38] (H-SPISSIFSR-OH; N-terminus and C-terminus assumed) | – | – | – | – | – | – | – | – | – | – | – | – | – | 4.04% | 4.49% | – | 0% | 0% | 13.2% | 14.6% |
